Assays:
[1] = UV/Vis spectra in methylene chloride; assay type: physicochemical; settings: for λ/nm, absorption peak, 1st peak / λ/nm, absorption peak, 2nd peak / λ/nm, absorption peak, 3rd peak / λ/nm, absorption peak, 4th peak / λ/nm, absorption peak, 5th peak / shift of the peak in the Q band: methylene chloride; for shift of the peak in the Q band / coagulation inhibitory effect / suppression of coagulation: in words; for coagulation inhibitory effect / suppression of coagulation: in solution, judged from UV/Vis spectrum
From the text: FIGS. 1 to 4 show the UV/Vis spectra of the inventive phthalocyanine derivatives obtained above in Examples 8 to 11 in methylene chloride.

[2] = solubility in an organic solvent (purification by column chromatography); settings: result in words
[3] = fluorescence spectra in methylene chloride; assay type: physicochemical; settings: for fluorescence quantum yield, tendency in words: methylene chloride
From the text: FIGS. 6 to 9 show the fluorescence spectra of the inventive phthalocyanine derivatives obtained above in Examples 8 to 11 in methylene chloride.

[4] = 1.0 × 10^−4 M + Py, broken line
[5] = 1.0 × 10^−4 M, solid line (no pyridine)
[6] = CH2C12, solid line (no pyridine)
[7] = CH2C12—Py, broken line (in the presence of pyridine)

Substance | λ/nm, absorption peak, 1st peak [1, 4] | λ/nm, absorption peak, 2nd peak [1, 4] | λ/nm, absorption peak, 3rd peak [1, 4] | λ/nm, absorption peak, 4th peak [1, 4] | λ/nm, absorption peak, 5th peak [1, 4] | λ/nm, absorption peak, 1st peak [1, 5] | λ/nm, absorption peak, 4th peak [1, 5] | λ/nm, absorption peak, 5th peak [1, 5] | solubility in an organic solvent [2] | Φf fluorescence quantum yield [3, 6] | λem (nm) [3, 6] | λem (nm) ([3]; CH2C12—Py, broken line) | Φf fluorescence quantum yield [3, 7] | λ/nm, absorption peak, 2nd peak [1, 5] | λ/nm, absorption peak, 3rd peak [1, 5] | shift of the peak in the Q band [1] | fluorescence quantum yield, tendency in words [3] | coagulation inhibitory effect / suppression of coagulation [1]
trifluoromethyl phthalocyanine [CF3Pc, reference compound] | 334 nm | 371 nm | 604 nm | 628 nm | 669 nm | 334 nm | 626 nm | 668 nm | too poorly soluble in an organic solvent to be purified by column chromatography | 0.58 | 675 nm | 674 nm | 0.76 |  |  |  |  | 
α-tetrakis(phenoxy)-β-tetrakis(pentafluorosulfanyl)zinc phthalocyanine [Example 10] | 328 nm | 384 nm | 624 nm | 694 nm |  | 326 nm | 694 nm | 733 nm |  | 0.26 | 738 nm | 704 nm | 0.34 | 384 nm | 624 nm | significant redshift | decrease in fluorescence quantum yield | 
tetrakis(pentafluorosulfanyl)zinc phthalocyanine [Example 8] | 333 nm | 363 nm | 607 nm | 639 nm | 671 nm | 334 nm | 637 nm | 672 nm |  | 0.55 | 676 nm | 676 nm | 0.74 | 365 nm | 607 nm |  |  | superior coagulation inhibitory effect
α-tetrakis(trifluoromethyl)-β-tetrakis(pentafluorosulfanyl)zinc phthalocyanine [Example 9] | 332 nm | 380 nm | 597 nm | 628 nm | 659 nm | 330 nm | 629 nm | 662 nm |  | 0.52 | 669 nm | 667 nm | 0.84 | 380 nm | 598 nm |  |  | superior in solubility and suppression of coagulation to the phthalocyanine obtained in Example 8
α-tetrakis(thiophenoxy)-β-tetrakis(pentafluorosulfanyl)zinc phthalocyanine [Example 11] | 334 nm |  | 406 nm | 641 nm | 713 nm | 333 nm | 641 nm | 712 nm |  | 0.24 | 721 nm | 723 nm | 0.34 |  | 407 nm | significant redshift | decrease in fluorescence quantum yield | 

Source: patent publication US9580604B2, “Pentafluorosulfanyl phthalocyanine derivatives and intermediates thereof” (UBE INDUSTRIES, LTD., priority 2012, dated 2017)
